pIC50: −log10 of the molar value. Calls of active or inactive are those of the source. How the calls were made is not given here.
Target: Proteinase-activated receptor 4 (Homo sapiens) (UniProt Q96RI0)
Experiment: potency of PAR4-AP response blockers – cell-based, CRC, dose response (AID 652253)
Details: cells, PAR4-AP induced response, antagonist CRC; for % PAR4-AP response remaining: at 10 µM (top of the series)

Proteinase-activated receptor 4 (Homo sapiens), sequence (Q96RI0 whole entry, looked up): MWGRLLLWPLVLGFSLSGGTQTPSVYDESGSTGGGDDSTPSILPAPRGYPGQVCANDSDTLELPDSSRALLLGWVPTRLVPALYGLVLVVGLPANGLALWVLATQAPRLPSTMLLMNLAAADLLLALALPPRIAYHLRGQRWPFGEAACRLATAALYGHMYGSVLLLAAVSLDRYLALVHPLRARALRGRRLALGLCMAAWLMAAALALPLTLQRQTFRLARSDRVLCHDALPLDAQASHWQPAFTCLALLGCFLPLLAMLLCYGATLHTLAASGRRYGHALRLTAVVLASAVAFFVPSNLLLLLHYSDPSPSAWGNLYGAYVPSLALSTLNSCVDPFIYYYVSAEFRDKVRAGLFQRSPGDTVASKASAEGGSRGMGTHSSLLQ

Row | SMILES | pIC50 | IC50 | % PAR4-AP response remaining
1 | COc1ccc(COc2ccc(C(=O)NCCC(C)(C)C)cc2)cc1 | 6.86 | – | –
2 | COc1ccc(-c2cn(Cc3cccc(S(C)(=O)=O)c3)c3ccccc23)cn1 | – | – | inactive
3 | COc1ccc(-c2cn(Cc3ccccc3)c3ccccc23)cn1 | – | inactive | –
4 | Fc1ccc(-c2cn(Cc3ccccc3)c3ccccc23)cn1 | – | – | inactive
5 | COc1ccc(-c2cn(Cc3ccccc3)c3ccccc23)cc1 | – | – | inactive

The next lines start with the values.

Row | pIC50 | IC50 | % PAR4-AP response remaining | SMILES
6 | – | inactive | – | COc1ccc(-c2cn(Cc3cccc(F)c3)c3ccccc23)cn1
7 | – | inactive | – | COc1ccc(-c2cn(Cc3cccc(Cl)c3)c3ccccc23)cn1
8 | – | inactive | – | COc1ccc(-c2cn(Cc3cccc(Br)c3)c3ccccc23)cn1

From PubChem BioAssay AID652253 (Vanderbilt Specialized Chemistry Center, 2013)
